The inhibition is the drop in the measured response relative to a control, in per cent.

For assay [1], the target named is T1, ICAM-1/LFA-1 interaction (recombinant LFA-1, biotinylated recombinant ICAM-1/Ig) (Homo sapiens, UniProt P20701).
T1 construct: Recombinant LFA-1 (100 mL of 0.7 mg/ml, ICOS Corporation) in D-PBS is then added to each well
Nature of the assay: ICAM-1/LFA-1 Biochemical Interaction Assay (46A). Format: binding. How it is done:
Compounds that antagonize the interaction between ICAM-1 and LFA-1 can be identified, and their activities quantitated, using both biochemical and cell-based adhesion assays. A primary biochemical assay, described below as assay 46A, was utilized to measure the ability of the present compounds to block the interaction between the integrin LFA-1 and its adhesion partner ICAM-1.
46A. ICAM-1/LFA-1 Biochemical Interaction Assay
In the biochemical assay, 100 mL of anti-LFA-1 antibody (ICOS Corporation) at a concentration of 5 mg/ml in Dulbecco's phosphate-buffered saline (D-PBS) is used to coat wells of a 96-well microtiter plate overnight at 4° C. The wells are then washed twice with wash buffer (D-PBS w/o Ca^++ or Mg^++, 0.05% Tween 20) and blocked by addition of 200 mL of D-PBS, 5% fish skin gelatin. Recombinant LFA-1 (100 mL of 0.7 mg/ml, ICOS Corporation) in D-PBS is then added to each well. Incubation continues for 1 hour at room temperature and the wells are washed twice with wash buffer. Serial dilutions of compounds being assayed as ICAM-1/LFA-1 antagonists, prepared as 10 mM stock solutions in dimethyl sulfoxide (DMSO), are diluted in D-PBS, 2 mM MgCl2, 1% fish skin gelatin and 50 mL of each dilution added to duplicate wells. This is followed by addition of […] of 0.8 mg/ml biotinylated recombinant ICAM-1/Ig (ICOS Corporation) to the wells and the plates are incubated at room temperature for 1 hour The wells are then washed twice with wash buffer and 100 mL of Europium-labeled Streptavidin (Wallac Oy) diluted 1:100 in Delfia assay buffer (Wallac Oy) are added to the wells. Incubation proceeds for 1 hour at room temperature. […] Incubation proceeds for 5 minutes with constant mixing.
where “background” refers to wells that are not coated with anti-LFA-1 antibody.

The test system of assay [2] is JY-8 cells (expressing LFA-1) adhering to immobilized ICAM-1. The assay can be described thus: ICAM-1/JY-8 Cell Adhesion Assay (46B). The conditions noted are these: Homo sapiens, JY-8 cell adhesion to ICAM-1; for inhibition at 2 µM: @ 2 μM compound (cell). Format: cell-based, human. How it is done: Biologically relevant activity of the compounds in this invention was confirmed using a cell-based adhesion assay, (described below as assay 46B) which measured the ability of the present compounds to block the adherence of JY-8 cells (a human EBV-transformed B cell line expressing LFA-1 on its surface) to immobilized ICAM-1.
46B. ICAM-1 /JY-8 Cell Adhesion Assay
For measurement of inhibitory activity in the cell-based adhesion assay, 96-well microtiter plates are coated with 70 μL of recombinant ICAM-1/g (ICOS Corporation) at a concentration of 5 μg/mL in D-PBS w/o Ca^++ or Mg^++ overnight at 4° C. The wells are then washed twice with D-PBS and blocked by addition of 200 μL of D-PBS, 5% fish skin gelatin by incubation for 1 hour at room temperature. Fluorescent tagged JY-8 cells (a human EBV-transformed B cell line expressing LFA-1 on its surface; 50 μL at 2×10^6 cells/ml in RPMI 1640 (standard cell culture medium)/1% fetal bovine serum) are added to the wells. For fluorescent labeling of JY-8 cells, 5×10^6 cells washed once in RPMI 1640 are resuspended in 1 mL of RPMI 1640 containing 2 μM Calceiun AM (MolecularProbes), are incubated at 37° C for 30 minutes and washed once with RPMI-1640/1% fetal bovine serum. Dilutions of compounds to be assayed for ICAM-1/LFA-1 antagonistic activity are prepared in RPMI-1640/1% fetal bovine serum from 10 mM stock solutions in DMSO and 50 μL are added to duplicate wells. Microtiter plates are incubated for 45 minutes at room temperature and the wells are washed gently once with RPMI-1640/1% fetal bovine serum. Fluorescent intensity is measured in a fluorescent plate reader with an excitation wavelength at 485 nm and an emission wavelength at 530 nm. The percent inhibition of a candidate compound at a given concentration is calculated using the following equation: [formula]
and these concentration/inhibition data are used to generate dose response curves, from which IC50 values are derived.

Where [3] appears, read: @ 2 μM compound, read-out: % inhibition.

Where two headings read alike, the source gives them in different places.

T1 sequence (P20701 26-1170): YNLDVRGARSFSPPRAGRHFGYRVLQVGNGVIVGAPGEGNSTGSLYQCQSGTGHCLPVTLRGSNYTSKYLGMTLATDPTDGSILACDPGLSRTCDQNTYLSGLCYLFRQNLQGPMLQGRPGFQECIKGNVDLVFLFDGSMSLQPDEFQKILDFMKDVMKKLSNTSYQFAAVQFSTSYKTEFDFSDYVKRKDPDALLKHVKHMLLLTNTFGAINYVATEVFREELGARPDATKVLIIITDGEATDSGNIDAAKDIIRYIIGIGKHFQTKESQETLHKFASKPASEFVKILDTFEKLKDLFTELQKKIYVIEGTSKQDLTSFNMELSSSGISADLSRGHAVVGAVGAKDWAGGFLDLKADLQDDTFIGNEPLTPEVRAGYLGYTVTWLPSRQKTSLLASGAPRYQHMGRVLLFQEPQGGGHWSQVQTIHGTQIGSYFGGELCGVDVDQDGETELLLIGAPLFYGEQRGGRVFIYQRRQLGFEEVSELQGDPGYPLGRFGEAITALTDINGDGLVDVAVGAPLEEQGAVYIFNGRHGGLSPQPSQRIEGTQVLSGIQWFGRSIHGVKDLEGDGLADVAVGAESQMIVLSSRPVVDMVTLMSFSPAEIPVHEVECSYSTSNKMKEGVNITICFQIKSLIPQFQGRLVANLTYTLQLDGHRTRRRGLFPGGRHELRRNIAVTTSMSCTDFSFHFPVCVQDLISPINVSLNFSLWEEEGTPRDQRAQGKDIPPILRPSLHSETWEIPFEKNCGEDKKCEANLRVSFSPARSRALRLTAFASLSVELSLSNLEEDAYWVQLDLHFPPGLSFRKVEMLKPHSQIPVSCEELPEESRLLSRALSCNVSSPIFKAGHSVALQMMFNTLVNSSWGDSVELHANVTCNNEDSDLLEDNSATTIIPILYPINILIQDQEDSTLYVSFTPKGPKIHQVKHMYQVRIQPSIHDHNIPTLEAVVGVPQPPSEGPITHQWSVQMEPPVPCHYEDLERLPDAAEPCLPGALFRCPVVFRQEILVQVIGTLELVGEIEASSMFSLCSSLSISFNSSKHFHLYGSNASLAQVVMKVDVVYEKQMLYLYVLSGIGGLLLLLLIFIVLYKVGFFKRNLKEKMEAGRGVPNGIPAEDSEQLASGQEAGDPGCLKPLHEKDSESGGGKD
T1 sequence (P05107 23-769 partner): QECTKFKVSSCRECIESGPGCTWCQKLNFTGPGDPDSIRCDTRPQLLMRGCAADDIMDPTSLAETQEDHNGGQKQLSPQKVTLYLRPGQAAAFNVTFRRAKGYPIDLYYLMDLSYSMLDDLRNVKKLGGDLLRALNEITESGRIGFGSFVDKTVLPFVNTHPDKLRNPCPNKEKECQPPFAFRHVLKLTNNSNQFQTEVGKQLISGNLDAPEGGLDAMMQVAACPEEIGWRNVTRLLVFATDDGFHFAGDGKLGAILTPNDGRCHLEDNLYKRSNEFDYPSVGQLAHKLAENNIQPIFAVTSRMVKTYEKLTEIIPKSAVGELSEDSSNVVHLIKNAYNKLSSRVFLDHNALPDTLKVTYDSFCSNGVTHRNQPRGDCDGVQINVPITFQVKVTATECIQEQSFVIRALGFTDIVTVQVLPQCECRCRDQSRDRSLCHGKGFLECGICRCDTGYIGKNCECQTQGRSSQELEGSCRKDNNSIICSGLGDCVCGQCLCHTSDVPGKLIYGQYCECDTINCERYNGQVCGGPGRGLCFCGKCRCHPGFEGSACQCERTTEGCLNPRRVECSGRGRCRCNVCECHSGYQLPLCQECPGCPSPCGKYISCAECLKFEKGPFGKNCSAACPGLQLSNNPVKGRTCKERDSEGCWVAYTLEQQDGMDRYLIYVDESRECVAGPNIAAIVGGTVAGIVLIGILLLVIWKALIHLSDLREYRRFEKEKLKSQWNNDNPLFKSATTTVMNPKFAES

Consider `O=C(NCCCN1CCCC1=O)[C@@H]1C[C@H]1c1ccc(Sc2ccccc2Br)c(C(F)(F)F)c1` (relative stereo) [Example 4], for which the “% inhibition” value in assay [1] (@ 2 μM compound, 2 µM) is 81% @ 2 μM. `CC(C)c1ccccc1Sc1ccc(C2CC2C(=O)N2CCC2)c(Cl)c1Cl` (racemic) [Example 25, (±)-(2-Isopropylphenyl)[2,3-dichloro-4-(trans-(2-(azetidin-1-yl)carbonyl)cycloprop-1-yl)phenyl]sulfide]: the inhibition at 2 µM in assay [1] (setting [3]) was 95%. “(±)-(2-Isopropylphenyl)[2,3-dichloro-4-(trans-(2-(morpholin-1-yl)carbonyl)cycloprop-1-yl)phenyl]sulfide [Example 20]”: the “% inhibition” value in assay [1] (@ 4 μM compound) is 96% @ 4 μM. Consider `O=C(O)C1CC1c1ccc(Sc2ccccc2N2CCOCC2)c(Cl)c1Cl` (racemic) [Example 12, (±)-(2-Morpholin-1-ylphenyl)[2,3-dichloro-4-(trans-(2-carboxycycloprop-1-yl)phenyl]sulfide], for which, in assay [1] (@ 4 μM compound), the inhibition at 4 µM stood at 91%. Still for that read-out and setting: the result for `O=C(NCCCN1CCCC1=O)C1CC1c1ccc(Sc2ccccc2Br)c(C(F)(F)F)c1` (racemic) [Example 1, (±)-(2-Bromophenyl)[2-trifluoromethyl-4-(trans-(2-((3-(1-pyrrolidin-2-onyl)-prop-1-ylamino)carbonyl)cycloprop-1-yl)phenyl]sulfide] reads 92%; that for `O=C(NCCCN1CCCC1=O)C1CC1c1ccc(Sc2cccc(N3CCOCC3)c2)c(C(F)(F)F)c1` (racemic) [Example 11, (±)-(3-Morpholin-1-ylphenyl)[2-trifluoromethyl-4-(trans-(2-((3-(1-pyrrolidin-2-onyl)-prop-1-ylamino)carbonyl)cycloprop-1-yl)phenyl]sulfide], 44%. On to `CC(C)c1ccccc1Sc1ccc(C2CC2C(=O)NCCCN2CCCC2=O)c(Cl)c1Cl` (racemic) [Example 22, (±)-(2-Isopropylphenyl)[2,3-dichloro-4-(trans-(2-((3-(1-pyrrolidin-2-onyl)-prop-1-ylamino)carbonyl)cycloprop-1-yl)phenyl]sulfide], for which 2 µM produced 92% inhibition in assay [2].

As for `CC(C)c1ccccc1Sc1ccc([C@@H]2C[C@H]2C(=O)NC2CCC2)c(Cl)c1Cl` (racemic) [Example 24, (±)-(2-Isopropylphenyl)[2,3-dichloro-4-(trans-2-(cyclobutylaminocarbonyl)cycloprop-1-yl)phenyl]sulfide], the inhibition at 2 µM in assay [1] (setting [3]) was 94%.

Take `O=C(NCCCN1CCCC1=O)[C@@H]1C[C@H]1c1ccc(Sc2ccccc2Br)c(C(F)(F)F)c1` (relative stereo) [Example 5]: the “% inhibition” value in assay [1] (@ 2 μM compound, 2 µM) amounted to 94% @ 2 μM. For `COc1ccccc1Sc1ccc(C2CC2C(=O)NCCC(=O)O)c(Cl)c1Cl` (mixture of isomers) [Example 13], the inhibition at 4 µM in assay [1] (@ 4 μM compound) was found to be 95%. The compound `CC(C)c1ccccc1Sc1ccc(C2CC2C(=O)NCCCC(=O)O)c(Cl)c1Cl` (racemic) [Example 17, (±)-(2-Isopropylphenyl)[2,3-dichloro-4-(trans-(2-(3-carboxypropylamino)carbonyl)cycloprop-1-yl)phenyl]sulfide] gave an inhibition at 2 µM in assay [2] of 86%. In turn, `O=C(NCCCN1CCCC1=O)C1CC1c1ccc(Sc2ccccc2N2CCCC2)c(C(F)(F)F)c1` (racemic) [Example 10, (±)-(2-Pyrrolidin-1-ylphenyl)[2-trifluoromethyl-4-(trans-(2-((3-(1-pyrrolidin-2-onyl)-prop-1-ylamino)carbonyl)cycloprop-1-yl)phenyl]sulfide] displayed an inhibition at 4 µM in assay [2] (@ 4 μM compound) of 72%. Consider `CC(C)c1ccccc1Sc1ccc(C2CC2C(=O)N2CCOCC2)c(Cl)c1Cl` (racemic) [Example 20, (±)-(2-Isopropylphenyl)[2,3-dichloro-4-(trans-(2-(morpholin-1-yl)carbonyl)cycloprop-1-yl)phenyl]sulfide], for which the inhibition at 2 µM in assay [1] (setting [3]) was 96%. Turning to “(±)-(2-Isopropylphenyl)[2,3-dichloro-4-(trans-(2-(4-carboxypiperidin-1-yl)carbonyl)cycloprop-1-yl)phenyl]sulfide [Example 18]”, the “% inhibition” value in assay [1] (@ 4 μM compound) came out at 94% @ 4 μM. Take `COc1ccccc1Sc1ccc(C2CC2C(=O)NCC(=O)O)c(Cl)c1Cl` (mixture of isomers) [Example 12]: the inhibition at 4 µM in assay [1] (@ 4 μM compound) came out at 93%.

As to `O=C(O)C1CCCN(c2ccccc2Sc2ccc(C3CC3C(=O)NCCCN3CCCC3=O)cc2C(F)(F)F)C1` (mixture of isomers) [Example 6, (±)-(2-(2-carboxyethyl)phenyl)[2-trifluoromethyl-4-(trans-(2-((3-(1-pyrrolidin-2-onyl)-prop-1-ylamino)carbonyl)cycloprop-1-yl)phenyl]sulfide], the inhibition at 2 µM in assay [1] (@ 2 μM compound) came out at 93%. Compound `CC(C)c1ccccc1Sc1ccc(C2CC2C(=O)N2CCCC(C(=O)O)C2)c(Cl)c1Cl` (racemic) [Example 3, (±)-(2-Isopropylphenyl)[2,3-dichloro-4-(trans-(2-(3-carboxypiperidine))carbonyl)cycloprop-1-yl)phenyl]sulfide] registered an inhibition at 2 µM in assay [2] of 90%. Take “(±)-(2-Bromophenyl)[2-trifluoromethyl-4-(trans-(2-((3-(1-pyrrolidin-2-onyl)-prop-1-ylamino)carbonyl)cycloprop-1-yl)phenyl]sulfide [Example 1]”: the “% inhibition” value in assay [1] (@ 2 μM compound) stood at 96% @ 2 μM. Compound `O=C(NCCCN1CCCC1=O)C1CC1c1ccc(Sc2ccccc2N2CCOCC2)c(C(F)(F)F)c1` (racemic) [Example 7, (±)-(2-Morpholin-1-ylphenyl)[2-trifluoromethyl-4-(trans-(2-((3-(1-pyrrolidin-2-onyl)-prop-1-ylamino)carbonyl)cycloprop-1-yl)phenyl]sulfide] displayed an inhibition at 1 µM in assay [2] (@ 1 μM compound (cell)) of 84%. Take `CC(C)c1ccccc1Sc1ccc(C2CC2C(=O)NCC(=O)O)c(Cl)c1Cl` (racemic) [Example 2, (±)-(2-Isopropylphenyl)[2,3-dichloro-4-(trans-(carboxymethylamino)carbonyl)cycloprop-1-yl)phenyl]sulfide]: the inhibition at 2 µM in assay [1] (setting [3]) stood at 95%. As for “(±)-(2-Isopropylphenyl)[2,3-dichloro-4-(trans-2-(cyclobutylaminocarbonyl)cycloprop-1-yl)phenyl]sulfide [Example 24]”, the “% inhibition” value in assay [1] (@ 4 μM compound) is given as 96% @ 4 μM. With “(±)-(2-Isopropylphenyl)[2,3-dichloro-4-(trans-(2-(4-acetylpiperazin-1-yl)carbonyl)cycloprop-1-yl)phenyl]sulfide [Example 21]”, in assay [1] (@ 4 μM compound), the “% inhibition” value amounted to 96% @ 4 μM. Same read-out and setting: the figure for `CC(C)c1ccccc1Sc1ccc([C@@H]2C[C@H]2C(=O)N2CCCCC2C(=O)O)c(Cl)c1Cl` (mixture of isomers) [Example 19, (±)-(2-Isopropylphenyl)[2,3-dichloro-4-(trans-(2-(2-carboxypiperidin-1-yl)carbonyl)cycloprop-1-yl)phenyl]sulfide] is 96% @ 4 μM.

As to `O=C(O)C1CC1c1ccc(Sc2ccccc2Br)c(Cl)c1Cl` (racemic) [Example 15, (±)-(2-Bromophenyl)[2,3-dichloro-4-(trans-(2-carboxycycloprop-1-yl)phenyl]sulfide], the inhibition at 4 µM in assay [1] (@ 4 μM compound) amounted to 88%.

The values are drawn from US6521619B2, “Aryl phenylcyclopropyl sulfide derivatives and their use as cell adhesion inhibiting anti-inflammatory and immune suppressive agents” (Icos Corporation, priority 2000, dated 2003).
